According to US7858635B2 (priority 2005, dated 2010):
Where two headings read alike, the source gives them in different places.

Legend:
M1 muscarinic receptor = target: T1, M1 muscarinic receptor (Homo sapiens, UniProt P11229); assay: Functional mobilization of intracellular calcium (FLIPR, Fluo-3), M1-CHO cells; type: cell-based; conditions: for Emax / M1 Efficacy: 100% efficacy is the maximum response obtained with the Carbachol control; for Emax: read-out: M1 Efficacy
T1 construct: expressed in transfected cells; host or cells: CHO cells (M1-CHO, under zeocin and G418 selection)
T1 sequence (P11229 1-460): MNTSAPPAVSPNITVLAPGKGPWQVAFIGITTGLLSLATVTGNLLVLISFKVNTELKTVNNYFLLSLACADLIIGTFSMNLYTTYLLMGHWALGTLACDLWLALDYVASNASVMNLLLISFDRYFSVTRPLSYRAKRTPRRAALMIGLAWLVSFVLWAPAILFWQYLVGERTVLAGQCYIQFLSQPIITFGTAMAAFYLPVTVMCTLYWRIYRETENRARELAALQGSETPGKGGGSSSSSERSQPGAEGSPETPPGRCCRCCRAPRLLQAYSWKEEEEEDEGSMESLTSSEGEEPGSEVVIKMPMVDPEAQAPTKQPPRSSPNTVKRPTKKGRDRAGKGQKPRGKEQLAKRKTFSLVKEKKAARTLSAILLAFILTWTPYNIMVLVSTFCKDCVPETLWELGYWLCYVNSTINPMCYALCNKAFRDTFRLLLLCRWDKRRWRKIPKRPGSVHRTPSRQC
Method in brief: (§1)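 Fluo-3 read-out, ex 488/em 540 nm, 60 sec on FLIPR 3. For agonist mode, compound added directly; for inhibition, 15 min compound pre-incubation before carbachol at EC80 (added as a 3× solution), or co-application. Buffer pH 7.4 with 1 mM probenecid; DMSO 0.5%.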

M4 muscarinic receptor = target: T2, M4 muscarinic receptor (Homo sapiens, UniProt P08173); assay: Functional mobilization of intracellular calcium (FLIPR, Fluo-3), M4-CHO cells; type: cell-based; conditions: for Emax / M4 Efficacy: 100% efficacy is the maximum response obtained with the Carbachol control; for Emax: read-out: M4 Efficacy
T2 construct: expressed in transfected cells; host or cells: CHO cells (M4-CHO, under puromycin, zeocin and blasticidin selection)
T2 sequence (P08173 1-479): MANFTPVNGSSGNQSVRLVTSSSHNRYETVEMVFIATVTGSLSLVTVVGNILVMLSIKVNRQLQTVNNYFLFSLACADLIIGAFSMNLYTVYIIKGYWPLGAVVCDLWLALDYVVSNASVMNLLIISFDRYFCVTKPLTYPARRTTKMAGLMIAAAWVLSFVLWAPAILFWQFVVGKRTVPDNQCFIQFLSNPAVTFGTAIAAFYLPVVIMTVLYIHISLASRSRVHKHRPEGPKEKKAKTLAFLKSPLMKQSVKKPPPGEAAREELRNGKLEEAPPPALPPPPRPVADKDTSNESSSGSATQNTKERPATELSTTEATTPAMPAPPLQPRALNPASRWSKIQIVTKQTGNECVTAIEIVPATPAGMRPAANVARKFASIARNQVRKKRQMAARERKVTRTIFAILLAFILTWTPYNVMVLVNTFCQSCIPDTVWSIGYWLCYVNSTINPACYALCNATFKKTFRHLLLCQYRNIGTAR
Method in brief: as §1

[1] = compound nos. 1-454, M1-CHO cells, calcium mobilization
[2] = compound nos. 1-454, M4-CHO cells, calcium mobilization

| SMILES | Emax (M1 muscarinic receptor; compound nos. 1-454) | M1 Activity (M1 muscarinic receptor; [1]) | Emax (M4 muscarinic receptor; compound nos. 1-454) | M4 Activity (M4 muscarinic receptor; [2]) | other results |
| --- | --- | --- | --- | --- | --- |
| CCCOC(=O)N1CCC(N2CCC3(CC2)CN(C(C)=O)c2ccc(C)cc23)CC1 [compound 252] | < 65% | + (activity was measured to be greater than or equal to 3.0 μM) | 55 to 70% | + (activity was measured to be greater than or equal to 4.0 μM) |  |
| O=C(OCC1CCCO1)N1C2CCC1CC(N1CCC3(CC1)COc1ccc(F)cc13)C2 (stereo not drawn) [compound 363] | < 65% | ++ (activity was measured to be between 0.7 μM and 3.0 μM) | < 55% | + (activity was measured to be greater than or equal to 4.0 μM) |  |
| O=C(C1CCC1)N1CC2(CCN(C3CC4CCC(C3)N4C(=O)O[C@@H]3CCOC3)CC2)c2cc(F)ccc21 (stereo partly drawn) [compound 69] | < 65% | ++ (activity was measured to be between 0.7 μM and 3.0 μM) | < 55% | ++ (activity was measured to be between 0.1 μM and 4.0 μM) |  |
| CCOC(=O)N1CCC(CN2CCC3(CC2)COc2ccc(Cl)cc23)CC1 [compound 176] | > 85% | ++ (activity was measured to be between 0.7 μM and 3.0 μM) | 55 to 70% | ++ (activity was measured to be between 0.1 μM and 4.0 μM) |  |
| CCOC(=O)N1CCC(N2CCC3(CC2)CN(C(=O)c2ccno2)c2ccc(F)cc23)CC1 [compound 321] | 65 to 85% | ++ (activity was measured to be between 0.7 μM and 3.0 μM) | 55 to 70% | + (activity was measured to be greater than or equal to 4.0 μM) |  |
| CCOC(=O)N1CCC(CN2CCC3(CC2)CN(C(C)=O)c2ccc(F)cc23)CC1 [compound 60] | 65 to 85% | ++ (activity was measured to be between 0.7 μM and 3.0 μM) | 55 to 70% | + (activity was measured to be greater than or equal to 4.0 μM) |  |
| CCOC(=O)N1CCC(N2CCC3(CC2)CN(C(C)=O)c2ccc(-c4ccc(NC(C)=O)cc4)cc23)CC1 [compound 10] | 65 to 85% | ++ (activity was measured to be between 0.7 μM and 3.0 μM) | 55 to 70% | ++ (activity was measured to be between 0.1 μM and 4.0 μM) |  |
| CN(C)C(=O)N1CC2(CCN(CC3CCN(c4cnccn4)C3)CC2)c2cc(F)ccc21 (stereo not drawn) [compound 449] |  |  |  |  | M1 Activity (M1 muscarinic receptor; compound nos. 1-454): +++ (activity was measured to be less than or equal to 0.7 μM); M1 Efficacy (M1 muscarinic receptor; compound nos. 1-454): ++ (efficacy was calculated to be between 85% and 65%); M4 Activity (M4 muscarinic receptor; compound nos. 1-454): +++ (activity was measured to be less than or equal to 0.1 μM); M4 Efficacy (M4 muscarinic receptor; compound nos. 1-454): ++ (efficacy was calculated to be between 70% and 55%) |
| COc1ccc(N2CCC(N3CCC4(CC3)CN(C(=O)N(C)C)c3ccc(F)cc34)CC2)cc1 [compound 442] | 65 to 85% |  | 55 to 70% |  | M1 Activity (M1 muscarinic receptor; compound nos. 1-454): ++ (activity was measured to be between 0.7 μM and 3.0 μM); M4 Activity (M4 muscarinic receptor; compound nos. 1-454): ++ (activity was measured to be between 0.1 μM and 4.0 μM) |
| CN(C)C(=O)N1CC2(CCN(C3CCN(c4ccccn4)CC3)CC2)c2cc(F)ccc21 [compound 452] | 65 to 85% |  | 55 to 70% |  | M1 Activity (M1 muscarinic receptor; compound nos. 1-454): ++ (activity was measured to be between 0.7 μM and 3.0 μM); M4 Activity (M4 muscarinic receptor; compound nos. 1-454): +++ (activity was measured to be less than or equal to 0.1 μM) |
| Cc1ccc2c(c1)C1(CCN(CC3CC4CCC3O4)CC1)CN2 (stereo not drawn) [compound 372] | 65 to 85% | +++ (activity was measured to be less than or equal to 0.7 μM) | > 70% | ++ (activity was measured to be between 0.1 μM and 4.0 μM) |  |
| CN(C)C(=O)N1C2CCC1CC(N1CCC3(CC1)COc1ccc(F)cc13)C2 (stereo not drawn) [compound 203] | 65 to 85% | +++ (activity was measured to be less than or equal to 0.7 μM) | < 55% | ++ (activity was measured to be between 0.1 μM and 4.0 μM) |  |
| C1=C[C@H]2C[C@H]1C[C@H]2CN1CCC2(CCc3ccccc32)CC1 [compound 313] | < 65% | + (activity was measured to be greater than or equal to 3.0 μM) | < 55% | + (activity was measured to be greater than or equal to 4.0 μM) |  |
| CC(=O)N[C@H]1CC2(CCN(C3CCCCCC3)CC2)c2ccccc21 [compound 143] | 65 to 85% | +++ (activity was measured to be less than or equal to 0.7 μM) | > 70% | +++ (activity was measured to be less than or equal to 0.1 μM) |  |
| CCCOC(=O)N1C2CCC1CC(N1CCC3(CC1)CN(C(=O)O[C@@H]1CCOC1)c1ccc(F)cc13)C2 (stereo partly drawn) [compound 297] |  | + (activity was measured to be greater than or equal to 3.0 μM) |  | + (activity was measured to be greater than or equal to 4.0 μM) | M1 Efficacy (M1 muscarinic receptor; compound nos. 1-454): ++ (efficacy was calculated to be between 85% and 65%); M4 Efficacy (M4 muscarinic receptor; compound nos. 1-454): ++ (efficacy was calculated to be between 70% and 55%) |
| O=C(OC1CCC1)N1C2CCC1CC(N1CCC3(CCc4ccccc43)CC1)C2 (stereo not drawn) [compound 68] | < 65% | ++ (activity was measured to be between 0.7 μM and 3.0 μM) | < 55% | + (activity was measured to be greater than or equal to 4.0 μM) |  |
| Cc1ccc2c(c1)C1(CCN(C3CC4CCC3C4)CC1)CN2C(=O)C1CC1 (stereo not drawn) [compound 51] | 65 to 85% | +++ (activity was measured to be less than or equal to 0.7 μM) | 55 to 70% | ++ (activity was measured to be between 0.1 μM and 4.0 μM) |  |
| CC(=O)N(C)[C@H]1CC2(CCN(C[C@H]3C[C@H]4CC[C@H]3C4)CC2)c2ccccc21 [compound 339] | < 65% | + (activity was measured to be greater than or equal to 3.0 μM) | < 55% | + (activity was measured to be greater than or equal to 4.0 μM) |  |
| CC(=O)N1CC2(CCN(C3CCN(c4nc(C)cs4)CC3)CC2)c2ccccc21 [compound 475] |  |  |  |  | Emax (M1 muscarinic receptor; compound nos. 455-509): 25 to 100%; M1 Activity (M1 muscarinic receptor; compounds 455-509): ++ (activity was measured to be between 2.0 μM and 5.0 μM); Emax (M4 muscarinic receptor; compound nos. 455-509): 25 to 100%; M4 Activity (M4 muscarinic receptor; compounds 455-509): ++ (activity was measured to be between 2.0 μM and 5.0 μM) |
| c1ccc2c(c1)CCC21CCN(CC2CCOCC2)CC1 [compound 18] | < 65% | +++ (activity was measured to be less than or equal to 0.7 μM) | > 70% | ++ (activity was measured to be between 0.1 μM and 4.0 μM) |  |
| CC=CCOC(=O)N1C2CCC1CC(N1CCC3(CC1)CN(C(=O)N(C)C)c1ccc(F)cc13)C2 (stereo not drawn) [compound 200] | 65 to 85% | ++ (activity was measured to be between 0.7 μM and 3.0 μM) | < 55% | + (activity was measured to be greater than or equal to 4.0 μM) |  |
